Test results as given in ChEMBL document CHEMBL3400121, “Design and synthesis of novel 1,2,3-triazole-pyrimidine-urea hybrids as potential anticancer agents” (Bioorg Med Chem Lett, 2015).
Blank lines part the entries; values can stand above or below the compound they belong to. Active and inactive are the calls of the source. No cut-off for these calls is given here.

What was measured:
[1] = Anticancer activity against human EC109 cells assessed as inhibition of proliferation after 72 hrs by MTT assay; format: functional, cell-based; settings: ECa-109, 72 h
MCF7 = assay: Anticancer activity against human MCF7 cells assessed as inhibition of proliferation after 72 hrs by MTT assay; format: functional, cell-based; settings: MCF7, 72 h
MGC-803 [2] = assay: Anticancer activity against human MGC803 cells assessed as inhibition of proliferation after 72 hrs by MTT assay; format: functional, cell-based; settings: MGC-803, 72 h
[3] = Anticancer activity against mouse B16F10 cells assessed as inhibition of proliferation after 72 hrs by MTT assay; format: functional, cell-based; settings: B16-F10, 72 h
[4] = Cytotoxicity against human GES-1 cells assessed as inhibition of proliferation after 72 hrs by MTT assay; format: cell-based; settings: GES1, 72 h
MGC-803 [5] = assay: Induction of apoptosis in human MGC803 cells assessed as viable cells at 4 uM after 12 to 24 hrs using annexin V-FITC/PI double staining by flow cytometry (reference value: 90.4 %); format: functional; settings: read-out: Activity
MGC-803 [6] = assay: Induction of apoptosis in human MGC803 cells assessed as early apoptotic cells at 4 uM after 12 to 24 hrs using annexin V-FITC/PI double staining by flow cytometry (reference value: 1.6 %); format: functional
MGC-803 [7] = assay: Induction of apoptosis in human MGC803 cells assessed as late apoptotic cells at 4 uM after 12 to 24 hrs using annexin V-FITC/PI double staining by flow cytometry (reference value: 1.2 %); format: functional
MGC-803 [8] = assay: Induction of apoptosis in human MGC803 cells assessed as necrotic cells at 4 uM after 12 to 24 hrs using annexin V-FITC/PI double staining by flow cytometry (reference value: 6.8 %); format: functional
MGC-803 [9] = assay: Induction of apoptosis in human MGC803 cells assessed as total apoptotic cells at 1 uM after 12 to 24 hrs using annexin V-FITC/PI double staining by flow cytometry (reference value: 2.8 %); format: functional
MGC-803 [10] = assay: Induction of apoptosis in human MGC803 cells assessed as total apoptotic cells at 2 uM after 12 to 24 hrs using annexin V-FITC/PI double staining by flow cytometry (reference value: 2.8 %); format: functional
MGC-803 [11] = assay: Induction of apoptosis in human MGC803 cells assessed as total apoptotic cells at 4 uM after 12 to 24 hrs using annexin V-FITC/PI double staining by flow cytometry (reference value: 2.8 %); format: functional
MGC-803 [12] = assay: Induction of apoptosis in human MGC803 cells after 12 to 24 hrs using annexin V-FITC/PI double staining by flow cytometry; format: functional, cell-based
MGC-803 [13] = assay: Induction of apoptosis in human MGC803 cells assessed as increase in p53 level at 2 to 4 uM after 48 hrs by Western blot analysis; format: functional, cell-based
MGC-803 [14] = assay: Induction of apoptosis in human MGC803 cells assessed as decrease in pro-caspase 3 level at 2 to 4 uM after 48 hrs by Western blot analysis; format: functional, cell-based
MGC-803 [15] = assay: Induction of apoptosis in human MGC803 cells assessed as cell rounding at 1 to 4 uM after 24 hrs using Hoechst 33258 staining by fluorescence microscopy; format: functional, cell-based
MGC-803 [16] = assay: Induction of apoptosis in human MGC803 cells assessed as chromatin shrinkage at 1 to 4 uM after 24 hrs using Hoechst 33258 staining by fluorescence microscopy; format: functional, cell-based
MGC-803 [17] = assay: Induction of apoptosis in human MGC803 cells assessed as formation of apoptotic bodies at 1 to 4 uM after 24 hrs using Hoechst 33258 staining by fluorescence microscopy; format: functional, cell-based
MGC-803 [18] = assay: Induction of apoptosis in human MGC803 cells assessed as viable cells at 1 uM after 12 to 24 hrs using annexin V-FITC/PI double staining by flow cytometry (reference value: 90.4 %); format: functional; settings: read-out: Activity
MGC-803 [19] = assay: Induction of apoptosis in human MGC803 cells assessed as early apoptotic cells at 1 uM after 12 to 24 hrs using annexin V-FITC/PI double staining by flow cytometry (reference value: 1.6 %); format: functional
MGC-803 [20] = assay: Induction of apoptosis in human MGC803 cells assessed as late apoptotic cells at 1 uM after 12 to 24 hrs using annexin V-FITC/PI double staining by flow cytometry (reference value: 1.2 %); format: functional
MGC-803 [21] = assay: Induction of apoptosis in human MGC803 cells assessed as necrotic cells at 1 uM after 12 to 24 hrs using annexin V-FITC/PI double staining by flow cytometry (reference value: 6.8 %); format: functional
MGC-803 [22] = assay: Induction of apoptosis in human MGC803 cells assessed as viable cells at 2 uM after 12 to 24 hrs using annexin V-FITC/PI double staining by flow cytometry (reference value: 90.4 %); format: functional; settings: read-out: Activity
MGC-803 [23] = assay: Induction of apoptosis in human MGC803 cells assessed as early apoptotic cells at 2 uM after 12 to 24 hrs using annexin V-FITC/PI double staining by flow cytometry (reference value: 1.6 %); format: functional
MGC-803 [24] = assay: Induction of apoptosis in human MGC803 cells assessed as late apoptotic cells at 2 uM after 12 to 24 hrs using annexin V-FITC/PI double staining by flow cytometry (reference value: 1.2 %); format: functional
MGC-803 [25] = assay: Induction of apoptosis in human MGC803 cells assessed as necrotic cells at 2 uM after 12 to 24 hrs using annexin V-FITC/PI double staining by flow cytometry (reference value: 6.8 %); format: functional

SMILES: Cc1ccc(Nc2nc(SCc3cn(CC(=O)NC(=O)Nc4ccccn4)nn3)nc(-c3ccc(C(C)C)cc3)c2C#N)cc1
IC50 [1]: 6.7 µM | IC50 (MCF7): > 64 µM | IC50 (MGC-803 [2]): 3.36 µM | IC50 [3]: 3.06 µM | IC50 [4]: > 64 µM

SMILES: N#Cc1c(Nc2cccc(C(F)(F)F)c2)nc(SCc2cn(CC(=O)NC(=O)Nc3ccccn3)nn2)nc1-c1ccc(Br)cc1
IC50 [1]: 2.96 µM | IC50 (MCF7): 3.11 µM | IC50 (MGC-803 [2]): 3.6 µM | IC50 [3]: 4.55 µM | IC50 [4]: 38.7 µM

SMILES: COc1ccccc1Nc1nc(SCc2cn(CC(=O)NC(=O)Nc3ccccn3)nn2)nc(-c2ccc(C)cc2)c1C#N
IC50 [1]: 7.85 µM | IC50 (MCF7): 19.7 µM | IC50 (MGC-803 [2]): 7.96 µM | IC50 [3]: 8.58 µM | IC50 [4]: > 64 µM

SMILES: COc1ccc(Nc2nc(SCc3cn(CC(=O)NC(=O)Nc4ccccn4)nn3)nc(-c3ccc(C)cc3)c2C#N)cc1
IC50 [1]: 5.87 µM | IC50 (MCF7): 23.4 µM | IC50 (MGC-803 [2]): 1.7 µM | IC50 [3]: 8.75 µM | IC50 [4]: 35.7 µM

SMILES: COc1cc(-c2nc(SCc3cn(CC(=O)NC(=O)Nc4ccccn4)nn3)nc(Nc3ccc(C)cc3)c2C#N)cc(OC)c1OC
viability at 4 µM (MGC-803 [5]): 35.2% | Activity (MGC-803 [6]): 52.7% | Activity (MGC-803 [7]): 10.3% | Activity (MGC-803 [8]): 1.8% | Activity (MGC-803 [9]): 17.2% | Activity (MGC-803 [10]): 32.5% | Activity (MGC-803 [11]): 63% | Activity (MGC-803 [12]): Dose-dependent effect | IC50 [1]: 21.3 µM | IC50 (MCF7): 21 µM | IC50 (MGC-803 [2]): 7.03 µM | IC50 [3]: 0.032 µM | IC50 [4]: > 64 µM | Activity (MGC-803 [13]): Active | Activity (MGC-803 [14]): Active | Activity (MGC-803 [15]): Active | Activity (MGC-803 [16]): Active | Activity (MGC-803 [17]): Active | viability at 1 µM (MGC-803 [18]): 80.3% | Activity (MGC-803 [19]): 13.1% | Activity (MGC-803 [20]): 4.1% | Activity (MGC-803 [21]): 2.5% | viability at 2 µM (MGC-803 [22]): 65.8% | Activity (MGC-803 [23]): 26.1% | Activity (MGC-803 [24]): 6.4% | Activity (MGC-803 [25]): 1.7%

SMILES: COc1cc(-c2nc(SCc3cn(CC(=O)NC(=O)Nc4ccccn4)nn3)nc(Nc3ccc(Cl)cc3)c2C#N)cc(OC)c1OC
IC50 [1]: > 64 µM | IC50 (MCF7): 45.1 µM | IC50 (MGC-803 [2]): 17.5 µM | IC50 [3]: 1.11 µM

SMILES: CC(C)c1ccc(-c2nc(SCc3cn(CC(=O)NC(=O)Nc4ccccn4)nn3)nc(Nc3cccc(C(F)(F)F)c3)c2C#N)cc1
IC50 [1]: 24.2 µM | IC50 (MCF7): 8.62 µM | IC50 (MGC-803 [2]): > 64 µM | IC50 [3]: 1.7 µM

SMILES: COc1cc(-c2nc(SCc3cn(CC(=O)NC(=O)Nc4ccccn4)nn3)nc(Nc3cccc(C(F)(F)F)c3)c2C#N)cc(OC)c1OC
IC50 [1]: > 64 µM | IC50 (MCF7): 8.14 µM | IC50 (MGC-803 [2]): 8.21 µM | IC50 [3]: 24.4 µM | IC50 [4]: > 64 µM

SMILES: Cc1ccc(-c2nc(SCc3cn(CC(=O)NC(=O)Nc4ccccn4)nn3)nc(Nc3cccc(Cl)c3)c2C#N)cc1
IC50 [1]: 25.6 µM | IC50 (MCF7): 14.9 µM | IC50 (MGC-803 [2]): 7.89 µM | IC50 [3]: 7.58 µM

Second part, led by results:

IC50 (MCF7): 30.6 µM | IC50 (MGC-803 [2]): 15.6 µM
SMILES: CC(C)c1ccc(Nc2nc(SCc3cn(CC(=O)NC(=O)Nc4ccccn4)nn3)nc(-c3ccc(Br)cc3)c2C#N)cc1
IC50 [1]: > 64 µM | IC50 [3]: 0.042 µM | IC50 [4]: > 64 µM

IC50 (MCF7): > 64 µM | IC50 (MGC-803 [2]): 19.3 µM
SMILES: Cc1ccc(-c2nc(SCc3cn(CC(=O)NC(=O)Nc4ccccn4)nn3)nc(Nc3ccc(C(C)C)cc3)c2C#N)cc1
IC50 [1]: 7.45 µM | IC50 [3]: 0.035 µM | IC50 [4]: > 64 µM

IC50 (MCF7): 18 µM | IC50 (MGC-803 [2]): > 64 µM
SMILES: CC(C)c1ccc(-c2nc(SCc3cn(CC(=O)NC(=O)Nc4ccccn4)nn3)nc(Nc3cccc(Cl)c3)c2C#N)cc1
IC50 [1]: 13.3 µM | IC50 [3]: 1.13 µM

IC50 (MCF7): > 64 µM | IC50 (MGC-803 [2]): 15.8 µM
SMILES: CC(C)c1ccc(-c2nc(SCc3cn(CC(=O)NC(=O)Nc4ccccn4)nn3)nc(Nc3ccccc3)c2C#N)cc1
IC50 [1]: > 64 µM | IC50 [3]: 14.3 µM

IC50 (MCF7): 43.7 µM | IC50 (MGC-803 [2]): 19.7 µM
SMILES: CC(C)c1ccc(-c2nc(SCc3cn(CC(=O)NC(=O)Nc4ccccn4)nn3)nc(Nc3ccccc3Cl)c2C#N)cc1
IC50 [1]: 23.4 µM | IC50 [3]: 6.79 µM
